In data set [1] the test system is influenza A/Victoria/3/75 B010. Briefly: Inhibition of influenza A/Victoria/3/75 B010 replication, standard CPE type assay. As to conditions: for EC50: three separate experiments (test 1-3). The data set is classed as cell-based.
Data set [2] is described as follows: Cytotoxicity (CC50) in the CPE type assay of Example 7. Particulars: CPE assay of Example 7; three separate experiments (test 1-3). It is filed as cell-based.
The subject of a further data set is influenza A virus. Briefly: Inhibition of influenza A virus replication (cytopathic effect) in MDCK cells. Particulars: for ID50: MDCK cells, influenza A virus. Background: Protection from cytopathic effect is a common read-out in antiviral testing.
The test system of data set [3] is MDCK cells. Put plainly: Minimum cytotoxic drug concentration in the MDCK cell replication assay.
In data set [4] the test system is MDCK cells. Particulars: dog.

In brackets after ≈: the same amount, converted by molar mass. Read-outs that look alike come from different tables or passages of the source.

The EC90 is the point of the concentration-response curve where the effect stands at 90%. A low value points to an effect from little substance. Broadly, the EC50 is the concentration giving half of the maximal effect. Broadly, the CC50 is the concentration at which the toxic effect on the cells reaches its halfway point. As to `CC(=O)N[C@H]1[C@H]([C@H](OC(=O)NCCCCCCNC(=O)CN(CCN(CC(=O)O)CC(=O)NCCCCCCNC(=O)O[C@@H]([C@@H]2OC(C(=O)O)=C[C@H](NC(=N)N)[C@H]2NC(C)=O)[C@H](O)CO)CC(=O)O)[C@H](O)CO)OC(C(=O)O)=C[C@@H]1NC(=N)N` [Compound 8, Bis-[7-(6′-methyleneamine-N-acetic acid-N-acetamido-hexyl)-carbamoyloxy-5-acetamido-4-guanidino-2,3,4,5-tetradeoxy-D-glycero-D-galacto-non-2-enopyranosonic acid]], the EC90 in data set [1] (test 1) came to 0.0671 µg/mL (≈ 0.0557 µM). In data set [1], this compound showed an EC50 of 0.00971 µg/mL (≈ 0.00806 µM). The compound further came in with a CC50 in data set [2] greater than 0.1 µg/mL.
Turning to `CC(=O)N[C@H]1[C@H]([C@H](OC(=O)NCCCCCCNC(=O)CNC(=O)CNC(=O)CNC(=O)NCCCCCCNC(=O)NCC(=O)NCC(=O)NCC(=O)NCCCCCCNC(=O)O[C@@H]([C@@H]2OC(C(=O)O)=C[C@H](NC(=N)N)[C@H]2NC(C)=O)[C@H](O)CO)[C@H](O)CO)OC(C(=O)O)=C[C@@H]1NC(=N)N` [(4)], in the data set with influenza A virus, the “ID50 (μg of (A))” value is 0.11 μg of (A) and the ID50 was 0.084 µg/mL (≈ 0.0576 µM). The same compound displayed an MTC in the data set on MDCK cells [3] greater than 10 µg/mL.
As to `CC(=O)N[C@H]1[C@H]([C@H](OC(=O)NCCCCCCN)[C@H](O)CO)OC(C(=O)O)=C[C@@H]1NC(=N)N` [(7), 5-acetamido-7-(6′-aminohexyl)-carbamoyloxy-4-guanidino-2,3,4,5-tetradeoxy-D-glycero-D-galacto-non-2-enopyranosonic acid, reference compound], in the data set with influenza A virus, the “ID50 (μg of (A))” value is 0.32 μg of (A) and the ID50 was 0.22 µg/mL (≈ 0.464 µM). In the data set with MDCK cells [4], the MTC was greater than 10 µg/mL.
In the case of `CC(=O)N[C@H]1[C@H]([C@H](O)[C@H](O)CO)OC(C(=O)O)=C[C@@H]1NC(=N)N` [Compound (A), 4-guanidino-2-deoxy-2,3-dehydro-N-acetylneuraminic acid, reference compound], in the data set on influenza A virus, the “ID50 (μg of (A))” value is 0.028 μg of (A) and the ID50 came to 0.0095 µg/mL (≈ 0.0286 µM). For the same compound, the EC50 in data set [1] (Influenza A virus, read-out: EC50) amounted to 0.009 µg/mL (≈ 0.0271 µM). Also, the MTC in the data set on MDCK cells [3] was greater than 10 µg/mL.
Regarding `CC(=O)N[C@H]1[C@H]([C@H](OC(=O)NCCCCCCNC(=O)NCCCCNC(=O)NCCCCCCNC(=O)O[C@@H]([C@@H]2OC(C(=O)O)=C[C@H](NC(=N)N)[C@H]2NC(C)=O)[C@H](O)CO)[C@H](O)CO)OC(C(=O)O)=C[C@@H]1NC(=N)N` [(2)], in the data set with influenza A virus, the “ID50 (μg of (A))” value was 0.013 μg of (A) and the ID50 is 0.007 µg/mL (≈ 0.00643 µM). For the same compound, in the data set on MDCK cells [3], the MTC is greater than 10 µg/mL.
The corresponding values for `CC(=O)N[C@H]1[C@H]([C@H](OC(=O)NCCCCCCNC(=O)CCCCCNC(=O)CCCCCNC(=O)NCCCCCCCCCCCCNC(=O)NCCCCCC(=O)NCCCCCC(=O)NCCCCCCNC(=O)O[C@@H]([C@@H]2OC(C(=O)O)=C[C@H](NC(=N)N)[C@H]2NC(C)=O)[C@H](O)CO)[C@H](O)CO)OC(C(=O)O)=C[C@@H]1NC(=N)N` [(5)] are 0.42 μg of (A), 0.35 µg/mL (≈ 0.212 µM) and greater than 10 µg/mL.
For `CC(=O)N[C@H]1[C@H]([C@H](OC(=O)NCCCCCCNC(=O)CCCCCNC(=O)CCCCCNC(=O)CCCCCNC(=O)CCCCCNC(=O)NCCCCCCNC(=O)NCCCCCC(=O)NCCCCCC(=O)NCCCCCC(=O)NCCCCCC(=O)NCCCCCCNC(=O)O[C@@H]([C@@H]2OC(C(=O)O)=C[C@H](NC(=N)N)[C@H]2NC(C)=O)[C@H](O)CO)[C@H](O)CO)OC(C(=O)O)=C[C@@H]1NC(=N)N` [(6)], in that order: 0.62 μg of (A), 0.63 µg/mL (≈ 0.311 µM) and greater than 10 µg/mL.
For `CC(=O)N[C@H]1[C@H]([C@H](OC(=O)NCCCCCCNC(=O)NCCCCCCCCCCCCNC(=O)NCCCCCCNC(=O)O[C@@H]([C@@H]2OC(C(=O)O)=C[C@H](NC(=N)N)[C@H]2NC(C)=O)[C@H](O)CO)[C@H](O)CO)OC(C(=O)O)=C[C@@H]1NC(=N)N` [(3), Bis-[7-(6′-hexyleneureodo)-carbamoyloxy-5-acetamido-4-guanidino-2,3,4,5-tetradeoxy-D-glycero-D-galacto-non-2-enopyranosonic acid]], in that order: 0.028 μg of (A), 0.017 µg/mL (≈ 0.0142 µM) and greater than 10 µg/mL.

(Values after patent publication US6548476B1, “Dimeric inhibitors of influenza neuraminidase” (priority 1999, dated 2003).)
